Results from the supplement of paper PMC10307832.

Legend:
Assay in all cases: relative viability (nuclei count vs DMSO), 5 days (fraction); higher = more cells survive
[1] = compound: COc1cc2nccc(Oc3ccc(NC(=O)C4(C(=O)Nc5ccc(F)cc5)CC4)cc3)c2cc1OC [Cabozantinib] + Nc1ncn([C@H]2C[C@H](O)[C@@H](CO)O2)c(=O)n1 [Decitabine] (partner 2 µM)
Method in brief: (§1)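 Five library-drug doses in √10 steps were combined with a fixed anchor-drug dose, or a single drug was given alone, by pin tool to lung cancer cell lines in 1536-well plates the day after seeding. Nuclei were stained and counted after 5 days. Relative viability is the nuclei count in treated wells over that in vehicle wells, taken as the median of duplicate plates.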

[2] = compound: COc1cc2nccc(Oc3ccc(NC(=O)C4(C(=O)Nc5ccc(F)cc5)CC4)cc3)c2cc1OC [Cabozantinib] + C[C@@H](Oc1cc(-c2cnn(C3CCNCC3)c2)cnc1N)c1c(Cl)ccc(F)c1Cl [Crizotinib] (partner 1 µM)
Method in brief: as §1

Zosuquidar + Vorinostat = compound: O[C@@H](COc1cccc2ncccc12)CN1CCN([C@@H]2c3ccccc3[C@@H]3[C@H](c4ccccc42)C3(F)F)CC1 [Zosuquidar] + O=C(CCCCCCC(=O)Nc1ccccc1)NO [Vorinostat] (partner 1 µM)
Method in brief: as §1

[3] = compound: COc1cc2nccc(Oc3ccc(NC(=O)C4(C(=O)Nc5ccc(F)cc5)CC4)cc3)c2cc1OC [Cabozantinib] + O=C(CCCCCCC(=O)Nc1ccccc1)NO [Vorinostat] (partner 1 µM)
Method in brief: as §1

Row | Cell Line | relative viability ([1]; first compound 0.02 µM) | relative viability ([1]; first compound 0.06325 µM) | relative viability ([1]; first compound 0.2 µM) | relative viability ([1]; first compound 0.6325 µM) | relative viability ([1]; first compound 2 µM) | relative viability ([2]; first compound 0.02 µM) | relative viability ([2]; first compound 0.06325 µM) | relative viability ([2]; first compound 0.2 µM) | relative viability ([2]; first compound 0.6325 µM) | relative viability ([2]; first compound 2 µM) | relative viability (Zosuquidar + Vorinostat; first compound 0.01 µM) | relative viability (Zosuquidar + Vorinostat; first compound 0.03162 µM) | relative viability (Zosuquidar + Vorinostat; first compound 0.1 µM) | relative viability (Zosuquidar + Vorinostat; first compound 0.3162 µM) | relative viability (Zosuquidar + Vorinostat; first compound 1 µM) | relative viability ([3]; first compound 0.02 µM) | relative viability ([3]; first compound 0.06325 µM) | relative viability ([3]; first compound 0.2 µM) | relative viability ([3]; first compound 0.6325 µM) | relative viability ([3]; first compound 2 µM)
1 | NCI-H2009 | 0.305 | 0.384 | 0.447 | 0.394 | 0.405 | 1.11 | 1.09 | 1.15 | 1.09 | 1.04 | 0.688 | 0.658 | 0.654 | 0.773 | 0.664 | 0.701 | 0.855 | 0.744 | 0.809 | 0.748
2 | NCI-H322M | 0.701 | 0.719 | 0.675 | 0.798 | 0.744 | 1.02 | 1.04 |  | 0.945 | 0.861 | 0.916 | 1.08 | 0.652 | 0.896 | 0.731 | 0.897 | 1.1 | 0.894 | 0.894 | 0.917
3 | NCI-H358 | 0.226 | 0.224 | 0.214 | 0.218 | 0.233 | 0.717 | 0.708 | 0.576 | 0.401 | 0.382 | 0.662 | 0.8 | 0.634 | 0.646 | 0.639 | 0.683 | 0.905 | 0.556 | 0.623 | 0.534
4 | LK-2 | 0.182 | 0.369 | 0.336 | 0.301 | 0.267 |  | 0.225 | 0.201 | 0.179 | 0.204 | 0.232 | 0.311 | 0.283 | 0.298 | 0.335 | 0.226 | 0.178 | 0.385 | 0.309 | 0.348
5 | NCI-H1755 | 0.729 | 0.73 | 0.757 | 0.717 | 0.742 | 0.972 | 0.964 | 0.942 | 0.797 | 0.781 | 0.657 | 0.883 | 0.694 | 0.845 | 0.729 | 0.765 | 0.792 | 0.83 | 0.739 | 0.705
6 | A-427 | 0.569 | 0.589 | 0.57 | 0.621 | 0.596 | 0.836 | 0.968 | 0.887 | 0.789 | 0.858 | 0.86 | 0.853 | 0.836 | 0.94 | 0.511 | 0.871 | 0.865 | 0.902 | 0.841 | 0.951
7 | PC-3 [JPC-3] | 0.782 | 0.886 |  | 0.872 | 0.797 | 1.07 | 1.1 |  | 0.919 | 0.967 | 0.817 | 0.91 | 0.589 | 0.916 | 0.416 | 0.694 | 1.1 |  | 0.816 | 1.02
8 | LOU-NH91 | 0.798 | 0.825 | 0.654 | 0.791 | 0.802 | 0.736 | 0.751 | 0.531 | 0.728 | 0.725 | 0.854 | 0.917 | 0.772 | 0.941 | 0.919 | 0.851 | 0.973 | 0.822 | 0.853 | 0.914
9 | BEN | 0.63 | 0.815 | 0.7 | 0.733 | 0.566 | 1.12 | 1 | 0.868 | 0.895 | 0.767 | 0.548 | 0.579 | 0.574 | 0.662 | 0.553 | 0.562 | 0.567 | 0.565 | 0.554 | 0.518
10 | NCI-H2085 | 0.583 | 0.549 | 0.58 | 0.626 | 0.642 | 0.949 | 0.921 | 0.992 | 0.898 | 0.799 | 0.807 | 0.753 |  | 0.907 | 0.767 | 0.851 | 0.92 | 0.725 | 0.797 | 0.74
11 | LC-2-ad | 0.814 | 0.811 | 0.772 | 0.633 | 0.539 | 0.438 | 0.606 | 0.493 | 0.474 | 0.467 | 0.681 | 0.774 | 0.722 | 0.683 | 0.674 | 0.724 | 0.806 | 0.767 | 0.682 | 0.522
12 | ABC-1 |  | 0.846 | 1.05 | 1.05 | 0.982 | 1.23 | 1.08 | 1.19 | 0.952 | 1.01 | 1.17 | 1.04 | 1 | 1.13 | 0.81 |  | 1.24 | 0.99 | 1.02 | 0.913
13 | NCI-H727 | 0.595 | 0.976 | 0.881 | 0.865 | 0.907 | 0.934 | 0.866 | 0.786 | 1.03 | 0.896 | 1.12 | 1.32 |  | 1.11 | 1.29 | 0.935 | 1.36 | 1.23 | 1.28 | 1.22
14 | EPLC-272H | 0.37 | 0.395 | 0.33 | 0.377 | 0.336 | 0.893 | 0.946 | 0.783 | 0.835 | 0.771 | 0.464 | 0.606 | 0.399 | 0.503 | 0.74 | 0.299 | 0.44 | 0.402 | 0.534 | 0.524
15 | EKVX | 0.328 | 0.386 | 0.261 | 0.336 | 0.394 | 1.25 | 1.07 | 0.856 | 0.907 | 1.03 | 0.819 | 0.736 | 0.595 | 0.691 | 0.656 | 0.725 | 0.868 |  | 0.708 | 0.84
16 | NCI-H1666 | 0.649 | 0.754 | 0.712 | 0.711 | 0.752 | 0.965 | 1 | 1.05 | 1.1 | 1.08 | 1 | 0.868 | 1.01 | 1.04 | 1.03 | 1.09 | 1.1 | 1.02 | 1.04 | 0.95
17 | HCC-15 | 0.562 | 0.788 | 0.683 | 0.644 | 0.536 | 0.877 | 0.956 | 0.828 | 0.873 | 0.811 | 0.844 | 0.745 | 0.716 | 0.894 | 0.877 | 0.913 | 0.893 | 0.861 | 0.799 | 0.824
